Reference: ChEMBL document CHEMBL5584353, “Design, Synthesis, and Biological Evaluation of Potent EZH2/LSD1 Dual Inhibitors for Prostate Cancer” (J Med Chem, 2024)
Active and inactive are the calls of the source. The rule behind the calls is not given here.

Columns and labels:
CWR22R [1] = test: Induction of apoptosis in human 22Rv1 cells at 10 uM incubated for 5 days by Annexin V-FITC/PI staining based flow cytometric analysis (reference value: 8.97 %); type: functional; conditions: time 5 day
[2] = biological target: T1, Amine oxidase [flavin-containing] A (Homo sapiens, UniProt P21397); test: Inhibition of MAO-A (unknown origin)
T1 sequence (P21397 whole entry): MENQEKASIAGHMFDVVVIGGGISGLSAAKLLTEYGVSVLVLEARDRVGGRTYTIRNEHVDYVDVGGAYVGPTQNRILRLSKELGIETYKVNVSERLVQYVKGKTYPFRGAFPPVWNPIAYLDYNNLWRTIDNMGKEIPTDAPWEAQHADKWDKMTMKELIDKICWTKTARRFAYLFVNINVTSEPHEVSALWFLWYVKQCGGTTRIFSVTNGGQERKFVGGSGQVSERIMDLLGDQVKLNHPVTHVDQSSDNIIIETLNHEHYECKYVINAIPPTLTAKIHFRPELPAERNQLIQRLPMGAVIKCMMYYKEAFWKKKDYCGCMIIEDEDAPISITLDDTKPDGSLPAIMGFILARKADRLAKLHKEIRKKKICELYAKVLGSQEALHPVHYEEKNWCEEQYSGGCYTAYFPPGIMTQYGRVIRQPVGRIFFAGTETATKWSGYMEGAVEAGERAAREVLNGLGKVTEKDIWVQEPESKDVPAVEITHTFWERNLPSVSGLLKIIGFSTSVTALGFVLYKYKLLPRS

LNCaP [3] = test: Growth inhibition of human LNCaP cells incubated for 6 to 7 days by MTS assay; type: functional; conditions: time 6-7 day
CWR22R [4] = test: Growth inhibition of human 22Rv1 cells incubated for 6 to 7 days by MTS assay; type: functional; conditions: time 6-7 day
PC-3 [5] = test: Growth inhibition of human PC-3 cells incubated for 6 to 7 days by MTS assay; type: functional; conditions: time 6-7 day
[6] = Inhibition of LSD2 (unknown origin); design: species or system Homo sapiens
[7] = biological target: T2, Lysine-specific histone demethylase 1A (Homo sapiens, UniProt O60341); test: Inhibition of recombinant human LSD1 using Histone H3 as fluorometric substrate incubated for 30 mins by HRP based plate reader assay
[8] = biological target: T2, Lysine-specific histone demethylase 1A; test: Inhibition of LSD1 in human LNCaP cells assessed as upregulation of H3K9me2 expression at 10 uM incubated for 24 hrs by Western blotting analysis; type: cell-based
[9] = biological target: Histone-lysine N-methyltransferase EZH2 (Homo sapiens) (UniProt Q15910); test: Inhibition of EZH2 in human 22Rv1 cells assessed as downregulation of H3K27me3 expression at 10 uM incubated for 24 hrs by Western blotting analysis; type: cell-based
Sequence of Histone-lysine N-methyltransferase EZH2 (Homo sapiens) (Q15910 whole entry, looked up): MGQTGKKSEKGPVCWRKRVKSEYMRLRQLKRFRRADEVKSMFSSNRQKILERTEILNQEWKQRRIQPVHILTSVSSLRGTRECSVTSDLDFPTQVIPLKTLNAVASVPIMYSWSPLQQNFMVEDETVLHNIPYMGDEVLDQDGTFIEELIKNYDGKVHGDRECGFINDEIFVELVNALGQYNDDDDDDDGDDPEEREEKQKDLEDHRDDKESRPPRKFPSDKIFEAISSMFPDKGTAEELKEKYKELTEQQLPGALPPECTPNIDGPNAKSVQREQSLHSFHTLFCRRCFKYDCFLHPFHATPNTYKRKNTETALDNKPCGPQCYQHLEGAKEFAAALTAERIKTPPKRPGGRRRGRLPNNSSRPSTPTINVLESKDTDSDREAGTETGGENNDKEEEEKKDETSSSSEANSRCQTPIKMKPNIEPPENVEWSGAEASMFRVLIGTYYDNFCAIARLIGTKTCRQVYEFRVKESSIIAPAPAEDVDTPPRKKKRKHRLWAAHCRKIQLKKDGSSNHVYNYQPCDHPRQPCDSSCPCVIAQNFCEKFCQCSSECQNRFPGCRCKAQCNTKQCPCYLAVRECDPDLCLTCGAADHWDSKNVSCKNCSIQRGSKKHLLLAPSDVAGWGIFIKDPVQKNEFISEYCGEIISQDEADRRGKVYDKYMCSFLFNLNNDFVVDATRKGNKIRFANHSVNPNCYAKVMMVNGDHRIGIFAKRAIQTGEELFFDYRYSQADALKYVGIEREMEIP

[10] = biological target: Histone-lysine N-methyltransferase EZH2 (Homo sapiens) (UniProt Q15910); test: Inhibition of EZH2 in human LNCaP cells assessed as downregulation of H3K27me3 expression at 10 uM incubated for 24 hrs by Western blotting analysis; type: cell-based
[11] = biological target: T2, Lysine-specific histone demethylase 1A; test: Inhibition of LSD1 in human 22Rv1 cells assessed as upregulation of H3K9me2 expression at 10 uM incubated for 24 hrs by Western blotting analysis; type: cell-based
LNCaP [12] = test: Synergistic growth inhibition of human LNCaP cells incubated for 6 to 7 days in presence of TCP by MTS assay; type: functional; conditions: time 6-7 day
LNCaP [13] = test: Synergistic growth inhibition of human LNCaP cells incubated for 6 to 7 days in presence of ORY1001 by MTS assay; type: functional; conditions: time 6-7 day
PC-3 [14] = test: Synergistic growth inhibition of human PC-3 cells incubated for 6 to 7 days in presence of ORY1001 by MTS assay; type: functional; conditions: time 6-7 day
[15] = Toxicity in BALB/c mouse xenografted with human 22Rv1 cells assessed as change in body weight at 65 mg/kg,ip administrated daily for 31 days; type: organism-based, CWR22R; conditions: in vivo, 744 h, time 31 day
PC-3 [16] = test: Synergistic growth inhibition of human PC-3 cells incubated for 6 to 7 days in presence of TCP by MTS assay; type: functional; conditions: time 6-7 day
CWR22R [17] = test: Synergistic growth inhibition of human 22Rv1 cells incubated for 6 to 7 days in presence of ORY1001 by MTS assay; type: functional; conditions: time 6-7 day
CWR22R [18] = test: Synergistic growth inhibition of human 22Rv1 cells incubated for 6 to 7 days in presence of TCP by MTS assay; type: functional; conditions: time 6-7 day
CWR22R [19] = test: Synergistic antitumor activity against human 22Rv1 cells xenografted in BALB/c mouse assessed as tumor growth inhibition at 65 mg/kg,ip administrated daily for 31 days in presence of TCP relative to control; conditions: 22Rv1, 744 h, read-out: TGI
[20] = Toxicity in BALB/c mouse xenografted with human 22Rv1 cells assessed as change in body weight at 65 mg/kg,ip administrated daily for 31 days in presence of TCP; type: organism-based, CWR22R; conditions: in vivo, 744 h, time 31 day

Row | GI50 (LNCaP [3]) | GI50 (PC-3 [5]) | IC50 [7] | SMILES | GI50 (CWR22R [4]) | also measured
1 | 6.49 µM | > 30 µM | > 3 µM | CCN(c1cc(-c2ccc([C@@H]3C[C@H]3N(CC(=O)N3CCN(C(=O)OC(C)(C)C)CC3)C(=O)OC(C)(C)C)cc2)cc(C(=O)NCc2c(C)cc(C)[nH]c2=O)c1C)C1CCOCC1 (racemic) | 13.1 µM | –
2 | 2.64 µM | 9.23 µM | – | CCN(c1cc(-c2ccc([C@@H]3C[C@H]3NCC3CCOCC3)cc2)cc(C(=O)NCc2c(C)cc(C)[nH]c2=O)c1C)C1CCOCC1 (racemic) | 4.03 µM | IC50 [2]: 2.05 µM; IC50 [6]: 43.7 µM
3 | 3.62 µM | 2.45 µM | > 3 µM | CCN(c1cc(-c2ccc([C@@H]3C[C@H]3NC(=O)OC(C)(C)C)cc2)cc(C(=O)NCc2c(C)cc(C)[nH]c2=O)c1C)C1CCOCC1 (racemic) | 5.12 µM | –
4 | 16.9 µM | > 30 µM | > 3 µM | CCN(c1cc(-c2ccc([C@@H]3C[C@H]3N(Cc3ccccc3OC)C(=O)OC(C)(C)C)cc2)cc(C(=O)NCc2c(C)cc(C)[nH]c2=O)c1C)C1CCOCC1 (racemic) | 16.7 µM | –
5 | 24.1 µM | 5.08 µM | – | CCN(c1cc(-c2ccc([C@@H]3C[C@H]3NC(=O)OC(C)(C)C)cc2)cc(C(=O)NCc2c(C)c(Br)c(C)[nH]c2=O)c1C)C1CCOCC1 (racemic) | > 30 µM | inhibition [8]: Active; inhibition [9]: inactive; inhibition [10]: inactive; inhibition [11]: Active
6 | 13.8 µM | > 30 µM | – | CCN(c1cc(-c2ccc([C@@H]3C[C@H]3NCC3CC3)cc2)cc(C(=O)NCc2c(C)cc(C)[nH]c2=O)c1C)C1CCOCC1 (racemic) | 10.4 µM | –
7 | 4.42 µM | 7.96 µM | – | CCN(c1cc(-c2ccc([C@@H]3C[C@H]3NC(=O)C(C)(C)C)cc2)cc(C(=O)NCc2c(C)cc(C)[nH]c2=O)c1C)C1CCOCC1 (racemic) | 13.3 µM | inhibition [8]: inactive; inhibition [11]: inactive
8 | 5.11 µM | 12.6 µM | > 3 µM | CCN(c1cc(-c2ccc([C@@H]3C[C@H]3N(CC(=O)N3CCOCC3)C(=O)OC(C)(C)C)cc2)cc(C(=O)NCc2c(C)cc(C)[nH]c2=O)c1C)C1CCOCC1 (racemic) | 7.83 µM | –
9 | 3.41 µM | 9.24 µM | – | CCN(c1cc(-c2ccc([C@@H]3C[C@H]3NCc3ccccc3)cc2)cc(C(=O)NCc2c(C)cc(C)[nH]c2=O)c1C)C1CCOCC1 (racemic) | 3.9 µM | –
10 | 6.83 µM | 23.9 µM | – | CCN(c1cc(-c2ccc([C@@H]3C[C@H]3N)cc2)cc(C(=O)NCc2c(C)cc(C)[nH]c2=O)c1C)C1CCOCC1 (racemic) | 16.3 µM | –
11 | 5.34 µM | 12 µM | – | CCN(c1cc(-c2ccc([C@@H]3C[C@H]3NC3CCCCC3)cc2)cc(C(=O)NCc2c(C)cc(C)[nH]c2=O)c1C)C1CCOCC1 (racemic) | 4.61 µM | –
12 | 5.7 µM | 10.2 µM | – | CCN(c1cc(-c2cccc([C@@H]3C[C@H]3NCC3CCOCC3)c2)cc(C(=O)NCc2c(C)cc(C)[nH]c2=O)c1C)C1CCOCC1 (racemic) | 4.81 µM | –
13 | 5.39 µM | > 30 µM | – | CCN(c1cc(-c2ccc([C@@H]3C[C@H]3NCc3ccccc3F)cc2)cc(C(=O)NCc2c(C)cc(C)[nH]c2=O)c1C)C1CCOCC1 (racemic) | 27.4 µM | –
14 | 5.02 µM | 18.1 µM | > 3 µM | CCN(c1cc(-c2ccc([C@@H]3C[C@H]3N(C(=O)OC(C)(C)C)C3CCCCC3)cc2)cc(C(=O)NCc2c(C)cc(C)[nH]c2=O)c1C)C1CCOCC1 (racemic) | 24.3 µM | –
15 | 4.09 µM | > 30 µM | – | CCN(c1cc(-c2ccc([C@@H]3C[C@H]3NCC(=O)N3CCNCC3)cc2)cc(C(=O)NCc2c(C)cc(C)[nH]c2=O)c1C)C1CCOCC1 (racemic) | 18.9 µM | –
16 | 7.22 µM | 19.3 µM | > 3 µM | CCN(c1cc(-c2cccc([C@H]3C[C@@H]3NC(=O)OC(C)(C)C)c2)cc(C(=O)NCc2c(C)cc(C)[nH]c2=O)c1C)C1CCOCC1 (racemic) | 21.7 µM | –
17 | 5.19 µM | 5.13 µM | > 3 µM | CCN(c1cc(-c2ccc([C@@H]3C[C@H]3N(Cc3ccccc3F)C(=O)OC(C)(C)C)cc2)cc(C(=O)NCc2c(C)cc(C)[nH]c2=O)c1C)C1CCOCC1 (racemic) | 7.13 µM | –
18 | 3.4 µM | 3.27 µM | > 3 µM | CCN(c1cc(-c2ccc([C@@H]3C[C@H]3N(C(=O)OC(C)(C)C)C3CCOCC3)cc2)cc(C(=O)NCc2c(C)cc(C)[nH]c2=O)c1C)C1CCOCC1 (racemic) | 8.86 µM | –
19 | 3.38 µM | 3.68 µM | > 3 µM | CCN(c1cc(-c2cccc([C@H]3C[C@@H]3N(CC3CCOCC3)C(=O)OC(C)(C)C)c2)cc(C(=O)NCc2c(C)cc(C)[nH]c2=O)c1C)C1CCOCC1 (racemic) | 6.05 µM | –
20 | 12.4 µM | 13.5 µM | > 3 µM | CCN(c1cc(-c2cccc([C@@H]3C[C@H]3N)c2)cc(C(=O)NCc2c(C)cc(C)[nH]c2=O)c1C)C1CCOCC1 (racemic) | 26.2 µM | –
21 | 3.42 µM | 12.7 µM | – | CCN(c1cc(-c2ccc([C@@H]3C[C@H]3NC3CCOCC3)cc2)cc(C(=O)NCc2c(C)cc(C)[nH]c2=O)c1C)C1CCOCC1 (racemic) | 4.39 µM | –
22 | 21 µM | > 30 µM | – | CCN(c1cc(-c2cccc([C@@H]3C[C@H]3NC3CCOCC3)c2)cc(C(=O)NCc2c(C)cc(C)[nH]c2=O)c1C)C1CCOCC1 (racemic) | 10.1 µM | –
23 | 6.01 µM | > 30 µM | – | CCN(c1cc(-c2ccc([C@@H]3C[C@H]3NCC(=O)N3CCOCC3)cc2)cc(C(=O)NCc2c(C)cc(C)[nH]c2=O)c1C)C1CCOCC1 (racemic) | 19.7 µM | –
24 | 5.45 µM | 6.41 µM | – | CCN(c1cc(-c2ccc([C@@H]3C[C@H]3NCc3ccccc3OC)cc2)cc(C(=O)NCc2c(C)cc(C)[nH]c2=O)c1C)C1CCOCC1 (racemic) | 4.87 µM | –
25 | 13.8 µM | > 30 µM | > 3 µM | CCN(c1cc(-c2ccc([C@@H]3C[C@H]3N(Cc3ccccc3)C(=O)OC(C)(C)C)cc2)cc(C(=O)NCc2c(C)cc(C)[nH]c2=O)c1C)C1CCOCC1 (racemic) | > 30 µM | –
26 | 3.47 µM | 3.87 µM | > 3 µM | CCN(c1cc(-c2cccc([C@H]3C[C@@H]3N(C(=O)OC(C)(C)C)C3CCOCC3)c2)cc(C(=O)NCc2c(C)cc(C)[nH]c2=O)c1C)C1CCOCC1 (racemic) | 6.92 µM | –
27 | 9.73 µM | > 30 µM | > 3 µM | CCN(c1cc(-c2ccc([C@@H]3C[C@H]3N(CC3CC3)C(=O)OC(C)(C)C)cc2)cc(C(=O)NCc2c(C)cc(C)[nH]c2=O)c1C)C1CCOCC1 (racemic) | 18.8 µM | –
28 | 19.5 µM | > 30 µM | – | CCN(c1cc(-c2ccc(CN3CCOCC3)cc2)cc(C(=O)NCc2c(C)cc(C)[nH]c2=O)c1C)C1CCOCC1 [TAZEMETOSTAT] | 51.9 µM | Activity (CWR22R [1]): 17.88%; GI50 (LNCaP [12]): 13 µM; GI50 (LNCaP [13]): 12 µM; GI50 (PC-3 [14]): > 30 µM; Activity [15]: Non-Toxic; GI50 (PC-3 [16]): > 30 µM; GI50 (CWR22R [17]): > 30 µM; GI50 (CWR22R [18]): > 30 µM; inhibition in vivo at 65 mg/kg (CWR22R [19]): 28.8%; Activity [20]: Non-Toxic

Row | SMILES | GI50 (LNCaP [3]) | GI50 (PC-3 [5]) | IC50 [7] | GI50 (CWR22R [4]) | also measured
29 | NC1CCC(N[C@@H]2C[C@H]2c2ccccc2)CC1 (stereo partly drawn) | > 30 µM | > 30 µM | – | > 30 µM | Activity (CWR22R [1]): 11.56%; IC50 [2]: 0.51 µM; IC50 [6]: 24.5 µM
30 | N[C@@H]1C[C@H]1c1ccccc1.N[C@H]1C[C@@H]1c1ccccc1 (racemic) [TRANYLCYPROMINE] | > 30 µM | > 30 µM | – | – | –
